According to ChEMBL document CHEMBL1151667, “Chlorochimaphilin: a new antibiotic from Moneses uniflora” (1996):
Values after ≈ are worked out from the molar mass of the structure shown. Active and inactive are the calls of the source. The calls are words filed in the database; no cut-off is given here.

Experiments:
[1] = test system: Mycobacterium avium; experiment: Antimicrobial activity against Mycobacterium avium 724 ATCC 25291 at 100 ug/disk after 2 weeks by disk diffusion method; type: functional, organism-based
[2] = test system: Escherichia coli; experiment: Antimicrobial activity against Escherichia coli UB1005 after 24 hrs by twofold serial microbroth dilution assay; conditions: UB1005, 24 h
[3] = test system: Escherichia coli; experiment: Antimicrobial activity against Escherichia coli DC2 after 24 hrs by twofold serial microbroth dilution assay; type: functional
[4] = test system: Aspergillus fumigatus; experiment: Antimicrobial activity against Aspergillus fumigatus after 48 hrs by twofold serial microbroth dilution assay; type: functional
[5] = test system: Aspergillus flavus; experiment: Antimicrobial activity against Aspergillus flavus after 48 hrs by twofold serial microbroth dilution assay; type: functional
[6] = test system: Staphylococcus aureus; experiment: Antimicrobial activity against Staphylococcus aureus SAP00017 after 24 hrs by twofold serial microbroth dilution assay; type: functional
[7] = test system: Fusarium tricinctum; experiment: Antimicrobial activity against Fusarium tricinctum after 48 hrs by twofold serial microbroth dilution assay; type: functional
[8] = test system: Human alphaherpesvirus 1; experiment: Antiviral activity against Herpes simplex virus 1 assessed as effect on virus-induced cytopathic effect at 200 ug/ml after 3 days; type: functional, organism-based
[9] = test system: Pseudomonas aeruginosa; experiment: Antimicrobial activity against Pseudomonas aeruginosa Z61 after 24 hrs by twofold serial microbroth dilution assay; type: functional
[10] = test system: Yarrowia lipolytica; experiment: Antimicrobial activity against Candida lipolytica after 48 hrs by twofold serial microbroth dilution assay; type: functional
[11] = test system: Candida albicans; experiment: Antimicrobial activity against Candida albicans after 48 hrs by twofold serial microbroth dilution assay; type: functional
[12] = test system: Candida albicans; experiment: Antimicrobial activity against Candida albicans CAND105 after 48 hrs by twofold serial microbroth dilution assay; type: functional
[13] = test system: Mycobacterium tuberculosis; experiment: Antimicrobial activity against Mycobacterium tuberculosis 107 ATCC 35801 at 100 ug/disk after 4 weeks by disk diffusion method; type: functional, organism-based
[14] = test system: Staphylococcus aureus; experiment: Antimicrobial activity against Staphylococcus aureus RN4220 after 24 hrs by twofold serial microbroth dilution assay; type: functional
[15] = test system: Pseudomonas aeruginosa; experiment: Antimicrobial activity against Pseudomonas aeruginosa K799 after 24 hrs by twofold serial microbroth dilution assay; type: functional
[16] = test system: Bacillus subtilis; experiment: Antimicrobial activity against Bacillus subtilis Vernon after 24 hrs by twofold serial microbroth dilution assay; type: functional
[17] = test system: Saccharomyces cerevisiae; experiment: Antimicrobial activity against Saccharomyces cerevisiae after 48 hrs by twofold serial microbroth dilution assay; type: functional
[18] = test system: Respiratory syncytial virus; experiment: Antiviral activity against Respiratory syncytial virus assessed as effect on virus-induced cytopathic effect at 200 ug/ml after 3 days; type: functional, organism-based
[19] = test system: Nannizzia gypsea; experiment: Antimicrobial activity against Microsporum gypseum after 48 hrs by twofold serial microbroth dilution assay; type: functional
[20] = test system: Candida albicans; experiment: Antimicrobial activity against Candida albicans CAND105 at <=800 ug/ml after 48 hrs by twofold serial microbroth dilution assay; type: functional, organism-based
[21] = test system: Pseudomonas aeruginosa; experiment: Antimicrobial activity against Pseudomonas aeruginosa Z61 at <=800 ug/ml after 24 hrs by twofold serial microbroth dilution assay; type: functional, organism-based
[22] = test system: Escherichia coli; experiment: Antimicrobial activity against Escherichia coli UB1005 at <=800 ug/ml after 24 hrs by twofold serial microbroth dilution assay; type: functional, organism-based
[23] = test system: Staphylococcus aureus; experiment: Antimicrobial activity against Staphylococcus aureus SAP00017 at <=800 ug/ml after 24 hrs by twofold serial microbroth dilution assay; type: functional, organism-based
[24] = test system: Escherichia coli; experiment: Antimicrobial activity against Escherichia coli DC2 at <=800 ug/ml after 24 hrs by twofold serial microbroth dilution assay; type: functional, organism-based
[25] = test system: Bacillus subtilis; experiment: Antimicrobial activity against Bacillus subtilis Vernon at <=800 ug/ml after 24 hrs by twofold serial microbroth dilution assay; type: functional, organism-based
[26] = test system: Pseudomonas aeruginosa; experiment: Antimicrobial activity against Pseudomonas aeruginosa K799 at <=800 ug/ml after 24 hrs by twofold serial microbroth dilution assay; type: functional, organism-based
[27] = test system: Staphylococcus aureus; experiment: Antimicrobial activity against Staphylococcus aureus RN4220 at <=800 ug/ml after 24 hrs by twofold serial microbroth dilution assay; type: functional, organism-based

| Compound | MIC [2] [µg/mL] | MIC [3] [µg/mL] | MIC [4] [µg/mL] | MIC [5] [µg/mL] | MIC [6] [µg/mL] | MIC [7] [µg/mL] | MIC [9] [µg/mL] | MIC [10] [µg/mL] | MIC [11] [µg/mL] | MIC [12] [µg/mL] | MIC ([14]; RN4220, 24 h) [µg/mL] | MIC [15] [µg/mL] | MIC [16] [µg/mL] | MIC [17] [µg/mL] | MIC [19] [µg/mL] | Activity [20] | Activity [21] | Activity [22] | Activity [23] | Activity [24] | also measured |
| --- | --- | --- | --- | --- | --- | --- | --- | --- | --- | --- | --- | --- | --- | --- | --- | --- | --- | --- | --- | --- | --- |
| CC1=C(O)C(=O)c2ccc(C)cc2C1=O | > 800 | > 800 | 50 (≈ 247 µM) | 100 (≈ 495 µM) | 800 (≈ 3960 µM) | 25 (≈ 124 µM) | > 800 | 25 (≈ 124 µM) | 50 (≈ 247 µM) | 80 (≈ 396 µM) | 400 (≈ 1980 µM) | > 800 | 800 (≈ 3960 µM) | > 100 | 12.5 (≈ 61.8 µM) |  |  |  |  |  | Activity [1]: inactive; Activity [8]: inactive; Activity [13]: inactive; Activity [18]: inactive |
| COc1ccc2c(OC(C)=O)cc(OC)c(OC(C)=O)c2c1OC(C)=O |  |  |  |  |  |  |  |  |  |  |  |  |  |  |  | inactive | inactive | inactive | inactive | inactive | Activity [25]: inactive; Activity [26]: inactive; Activity [27]: inactive |
| CC(=O)Oc1c(C)c(OC(C)=O)c2cc(C)ccc2c1O[C@@H]1O[C@@H](C)[C@H](OC(C)=O)[C@@H](OC(C)=O)[C@H]1OC(C)=O |  |  |  |  |  |  |  |  |  |  |  |  |  |  |  | inactive | inactive | inactive | inactive | inactive | Activity [25]: inactive; Activity [26]: inactive; Activity [27]: inactive |
| Cc1ccc2c(O[C@@H]3O[C@@H](C)[C@H](O)[C@@H](O)[C@H]3O)c(O)c(C)c(O)c2c1 |  |  |  |  |  |  |  |  |  |  |  |  |  |  |  | inactive | inactive | inactive | inactive | inactive | Activity [25]: inactive; Activity [26]: inactive; Activity [27]: inactive |
| CC1=CC(=O)c2ccc(C)cc2C1=O [CHIMAPHILIN] | > 800 | > 800 | 50 (≈ 269 µM) | 25 (≈ 134 µM) | 25 (≈ 134 µM) | 12.5 (≈ 67.1 µM) | > 800 | 50 (≈ 269 µM) | 50 (≈ 269 µM) | 400 (≈ 2150 µM) | 25 (≈ 134 µM) | > 800 | 50 (≈ 269 µM) | 50 (≈ 269 µM) | 6.2 (≈ 33.3 µM) |  |  |  |  |  | Activity [1]: inactive; Activity [8]: inactive; Activity [13]: inactive; Activity [18]: inactive |
| GENTAMICIN |  | 1 |  |  | > 32 |  | 0.3 |  |  | > 32 |  | 1 | 16 |  |  |  |  |  |  |  | MIC [14]: 0.3 µg/mL |
| CC1=CC(=O)c2ccc(C)c(Cl)c2C1=O | > 800 | 800 (≈ 3630 µM) | 25 (≈ 113 µM) | 25 (≈ 113 µM) | 25 (≈ 113 µM) | 12.5 (≈ 56.6 µM) | 400 (≈ 1810 µM) | 50 (≈ 227 µM) | 100 (≈ 453 µM) | 50 (≈ 227 µM) | 200 (≈ 906 µM) | > 800 | 12.5 (≈ 56.6 µM) | 100 (≈ 453 µM) | 3.1 (≈ 14 µM) |  |  |  |  |  | Activity [1]: inactive; Activity [8]: inactive; Activity [13]: inactive; Activity [18]: inactive |
| NYSTATIN |  |  | 5 | > 10 |  | 5 |  | > 10 | 10 |  |  |  |  | 10 | 2.5 |  |  |  |  |  |  |
| COc1cccc(OC)c1C(=O)N[C@@H]1C(=O)N2[C@@H]1SC(C)(C)[C@@H]2C(=O)O [METHICILLIN] | > 512 | < 4 |  |  | 256 (≈ 673 µM) |  | < 4 |  |  | > 512 | < 4 | 256 (≈ 673 µM) | 128 (≈ 336 µM) |  |  |  |  |  |  |  |  |
| COc1ccc2c(O)cc(OC)c(O)c2c1O |  |  |  |  |  |  |  |  |  |  |  |  |  |  |  | inactive | inactive | inactive | inactive | inactive | Activity [25]: inactive; Activity [26]: inactive; Activity [27]: inactive |
| C[C@@H]1[C@H](O)[C@@H](C)/C=C/C=C/C=C/C=C/C=C/C=C/C=C/[C@H](O[C@@H]2O[C@H](C)[C@@H](O)[C@H](N)[C@@H]2O)C[C@@H]2O[C@](O)(C[C@@H](O)C[C@@H](O)[C@H](O)CC[C@@H](O)C[C@@H](O)CC(=O)O[C@H]1C)C[C@H](O)[C@H]2C(=O)O [AMPHOTERICIN B] | > 5 | > 5 |  |  | > 5 |  | > 5 |  |  | 0.1 (≈ 0.108 µM) | > 5 | > 5 | > 5 |  |  |  |  |  |  |  |  |
